Test results as given in ChEMBL document CHEMBL1201862, “PubChem BioAssay data set” (2004).
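Step 1: Grow cells in 96-well plates. Step 2: Expose to compound for 48 hours at 5 concentrations. Step 3: Interpolate endpoints linearly; if unreached, use highest concentration. GI50 marks 50% less growth.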 Calls of active or inactive are those of the source. Cut-off read from the data, not from the text of the source: active = GI50 up to about 1.1 µM and inactive = higher.

Key:
Experiment in all cases: NCI-60 cell line screen, 48 h
[1] = test system: UO-31
[2] = test system: SN12C
[3] = test system: RXF 393
[4] = test system: EKVX
[5] = test system: HCC 2998
[6] = test system: UACC-257
[7] = test system: NCI-H23
[8] = test system: SR
[9] = test system: UACC-62
[10] = test system: XF498
[11] = test system: A498
[12] = test system: A549
[13] = test system: SK-MEL-5
[14] = test system: CAKI-1
[15] = test system: NCI-H460
[16] = test system: HL-60
[17] = test system: LOX IMVI
[18] = test system: TK-10
[19] = test system: SW-620
[20] = test system: DLD-1
[21] = test system: HCT-116
[22] = test system: M19-MEL
[23] = test system: OVCAR-4
[24] = test system: SK-MEL-2
[25] = test system: KM-20L2
[26] = test system: OVCAR-8
[27] = test system: SK-MEL-28
[28] = test system: M14
[29] = test system: SNB-75
[30] = test system: U-251
[31] = test system: IGROV-1
[32] = test system: SF-295
[33] = test system: 786-0
[34] = test system: HCT-15
[35] = test system: RPMI-8226
[36] = test system: MOLT-4
[37] = test system: HT-29
[38] = test system: DMS-273
[39] = test system: HOP-92
[40] = test system: NCI-H226
[41] = test system: Malme-3M
[42] = test system: SF-539
[43] = test system: ACHN
[44] = test system: LXFL 529
[45] = test system: SNB-78
[46] = test system: CCRF-CEM
[47] = test system: SNB-19
[48] = test system: SF-268
[49] = test system: K562
[50] = test system: OVCAR-3
[51] = test system: OVCAR-5

Question: Which results are given for Cc1cccc(C(C)(C)C)c1NC(=O)CC1C(=O)Nc2ccccc2S1(=O)=O (stereo unspecified)?
Answer: GI50 [1]: 11.2 µM (inactive); GI50 [2]: 12.3 µM (inactive); GI50 [3]: 13.4 µM (inactive); GI50 [4]: 2.87 µM (inactive); GI50 [5]: 8.11 µM (inactive); GI50 [6]: 27.6 µM (inactive); GI50 [7]: 5.38 µM (inactive); GI50 [8]: 3.21 µM (inactive); GI50 [9]: 5.06 µM (inactive); GI50 [10]: 11.1 µM (inactive); GI50 [11]: 14.9 µM (inactive); GI50 [12]: 13.6 µM (inactive); GI50 [13]: 12.1 µM (inactive); GI50 [14]: 16.8 µM (inactive); GI50 [15]: 11 µM (inactive); GI50 [16]: 3.25 µM (inactive); GI50 [17]: 5.98 µM (inactive); GI50 [18]: 20.5 µM (inactive); GI50 [19]: 10.4 µM (inactive); GI50 [20]: 5.5 µM (inactive); GI50 [21]: 10.4 µM (inactive); GI50 [22]: 12.4 µM (inactive); GI50 [23]: 11.4 µM (inactive); GI50 [24]: 9.12 µM (inactive); GI50 [25]: 9.29 µM (inactive); GI50 [26]: 10.6 µM (inactive); GI50 [27]: 14.1 µM (inactive); GI50 [28]: 12.8 µM (inactive); GI50 [29]: 12.5 µM (inactive); GI50 [30]: 8.28 µM (inactive); GI50 [31]: 9.33 µM (inactive); GI50 [32]: 7.1 µM (inactive); GI50 [33]: 10 µM (inactive); GI50 [34]: 4.76 µM; GI50 [35]: 3.24 µM (inactive); GI50 [36]: 2.28 µM (inactive); GI50 [37]: 5.25 µM (inactive); GI50 [38]: 4.25 µM (inactive); GI50 [39]: 11.5 µM (inactive); GI50 [40]: 16.7 µM (inactive); GI50 [41]: 11.8 µM (inactive); GI50 [42]: 3.14 µM (inactive); GI50 [43]: 10.8 µM (inactive); GI50 [44]: 12 µM (inactive); GI50 [45]: 8.24 µM (inactive); GI50 [46]: 2.34 µM (inactive); GI50 [47]: 15.5 µM (inactive); GI50 [48]: 11.2 µM (inactive); GI50 [49]: 2.84 µM (inactive); GI50 [50]: 5.55 µM (inactive); GI50 [51]: 13 µM (inactive)
